SMILES strings stand for the structures.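 Briefly, cells in 96-well plates were exposed to five compound concentrations for 48 h, and endpoints were estimated by linear interpolation. GI50 marks 50% less growth.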 Active and inactive are the calls of the source. Rule as the data show it: active = GI50 up to about 1.1 µM and inactive = higher.

Test systems include 786-0; COLO 205; DMS-114; DU-145; HCT-116; HOP-62; HT-29; K562; M14; MDA-MB-435; Malme-3M; NCI-H522; RXF 393; SF-295; SK-MEL-28; SK-MEL-2; SN12C; TK-10; HL-60; BT-549.
Experiment in all cases: NCI-60 cell line screen, 48 h

In the case of `CCN(CC)CCCNc1ccc2ncn3c4ccc(O)cc4c(=O)c1c23`, the GI50 with 786-0 was 0.643 µM (active); with COLO 205, 0.908 µM (active); with DMS-114 it was 3.37 µM (inactive); in the assay on DU-145, 1.42 µM (inactive); with HCT-116, 0.441 µM (active); in the assay on HOP-62, 0.989 µM (active). For the same molecule, the GI50 is 0.649 µM (active) with HT-29; 1.04 µM (active) in the assay with K562; 3.3 µM (inactive) in the assay with M14; > 10 µM (inactive) in the assay on MDA-MB-435; 4.78 µM (inactive) in the assay on Malme-3M; 0.851 µM (active) with NCI-H522. Further, the GI50 in the assay with RXF 393 was 0.14 µM (active); in the assay with SF-295 it was 1.63 µM (inactive); with SK-MEL-28 it was 12.4 µM (inactive); in the assay with SK-MEL-2 it was 3.7 µM (inactive); in the assay on SN12C, 0.637 µM (active); in the assay with TK-10, 1.69 µM (inactive).
For the molecule `Cc1ccccc1NC(=O)C(=O)Cc1nc2ccccc2s1`, the GI50 with 786-0, in the assay on COLO 205, in the assay with DMS-114, in the assay with HCT-116, in the assay with HL-60 and in the assay on HOP-62 was > 100 µM (inactive) in each case. For the same molecule, the GI50 in the assay on HT-29, in the assay on K562, with M14, in the assay on Malme-3M, in the assay on NCI-H522 and with RXF 393 was > 100 µM (inactive) throughout. In addition, the GI50 in the assay on SF-295, in the assay with SK-MEL-28, in the assay with SK-MEL-2, in the assay on SN12C and in the assay on TK-10 was > 100 µM (inactive) in each case.
With `CC1=C(/C(C)=N/NC(=O)C(N)=O)Sc2ccccc2N1`, the GI50 with 786-0 is > 100 µM (inactive); with COLO 205, > 100 µM (inactive); in the assay with DMS-114, > 100 µM (inactive); in the assay with HCT-116 it was 10 µM (inactive); in the assay on HL-60 it was > 100 µM (inactive); in the assay on HOP-62, > 100 µM (inactive). In addition, the GI50 in the assay with HT-29, with K562, in the assay with M14, with Malme-3M, in the assay on NCI-H522 and in the assay on RXF 393 was > 100 µM (inactive) each time. Also, the GI50 with SF-295, in the assay on SK-MEL-28, with SK-MEL-2, with SN12C and in the assay on TK-10 was > 100 µM (inactive) in each case.
On to `COc1nc(NC2OC(COC(C)=O)C(OC(C)=O)C(OC(C)=O)C2OC(C)=O)c(/N=C/C=N/c2c(NC3OC(COC(C)=O)C(OC(C)=O)C(OC(C)=O)C3OC(C)=O)nc(OC)n(C)c2=O)c(=O)n1C` (stereo not drawn), for which the GI50 is 51.5 µM (inactive) with 786-0; > 100 µM (inactive) in the assay with BT-549; > 100 µM (inactive) in the assay with COLO 205; > 100 µM (inactive) with DMS-114; > 100 µM (inactive) with DU-145; > 100 µM (inactive) in the assay on HCT-116. Further, the GI50 in the assay on HL-60 was > 100 µM (inactive); in the assay with HOP-62, 28.1 µM (inactive); in the assay on HT-29, > 100 µM (inactive); in the assay with K562, > 100 µM (inactive); with M14, > 100 µM (inactive); with MDA-MB-435, > 100 µM (inactive). In addition, the GI50 was > 100 µM (inactive) in the assay on Malme-3M; > 100 µM (inactive) with NCI-H522; 30.5 µM (inactive) in the assay on RXF 393; 49.2 µM (inactive) in the assay on SF-295; > 100 µM (inactive) in the assay with SK-MEL-28; > 100 µM (inactive) in the assay on SK-MEL-2. Besides, the GI50 in the assay on SN12C is > 100 µM (inactive); in the assay on TK-10, 56.4 µM (inactive).
As for `NC(CS)C(=O)NCCNc1ccc(NCCNC(=O)C(N)CS)c2c1C(=O)c1c(O)ccc(O)c1C2=O` (stereo not drawn), the GI50 with 786-0 was 0.00662 µM (active); in the assay with BT-549 it was 0.327 µM (active); in the assay on COLO 205 it was 0.422 µM (active); in the assay on DMS-114, 0.00143 µM (active); in the assay with DU-145, 0.0261 µM (active); with HCT-116 it was 0.0391 µM (active). In addition, the GI50 in the assay with HL-60 is 0.00175 µM (active); in the assay on HOP-62 it was 0.00361 µM (active); in the assay on HT-29, 0.0897 µM (active); in the assay with K562 it was 0.0468 µM (active); in the assay with M14, 0.0248 µM (active); in the assay with MDA-MB-435 it was 0.483 µM (active). Moreover, the GI50 is 0.0653 µM (active) in the assay with Malme-3M; 0.0279 µM (active) with NCI-H522; 0.191 µM (active) with RXF 393; 0.00782 µM (active) with SF-295; 0.628 µM (active) in the assay with SK-MEL-28; 0.427 µM (active) in the assay with SK-MEL-2. Further, the GI50 was 0.00836 µM (active) in the assay with SN12C and 0.667 µM (active) in the assay with TK-10.
Take `O=C(/C=C/c1ccc(Br)cc1)c1ccc(NCc2nc3ccccc3[nH]2)cc1`: the GI50 was 5.25 µM (inactive) in the assay on 786-0; 2.53 µM (inactive) in the assay on COLO 205; 2.99 µM (inactive) with DMS-114; 4.66 µM (inactive) in the assay with HCT-116; 5.86 µM (inactive) with HL-60; 22.2 µM (inactive) in the assay on HOP-62. Besides, the GI50 with HT-29 was 4.65 µM (inactive); in the assay on K562, 3.35 µM (inactive); in the assay on M14 it was 17.9 µM (inactive); in the assay with Malme-3M, 25 µM (inactive); in the assay with NCI-H522, 3.41 µM (inactive); with RXF 393, 4.35 µM (inactive). Also, the GI50 is 4.61 µM (inactive) in the assay with SF-295; 18.6 µM (inactive) with SK-MEL-28; 17.6 µM (inactive) with SK-MEL-2; 9.93 µM (inactive) in the assay with SN12C; 11.1 µM (inactive) in the assay with TK-10.
`C[N+](C)(C)CC1CCC(C[N+](C)(C)C)C1=O` (stereo not drawn): the GI50 in the assay on 786-0 is 1.91 µM (inactive); in the assay on BT-549 it was 17 µM (inactive); with DMS-114, 2.34 µM (inactive); in the assay with DU-145, 15.5 µM (inactive); with HCT-116, 1.71 µM (inactive); in the assay on HOP-62 it was 19.2 µM (inactive). In addition, the GI50 with HT-29 is 1.56 µM (inactive); with K562 it was 0.359 µM (active); in the assay with M14, 1.72 µM (inactive); with MDA-MB-435, 16.3 µM (inactive); with Malme-3M it was 1.08 µM (active); in the assay on NCI-H522, 0.2 µM (active). In addition, the GI50 in the assay with RXF 393 is 1.91 µM (inactive); with SF-295 it was 20.5 µM (inactive); in the assay with SK-MEL-2 it was 14.9 µM (inactive); in the assay on SN12C, 4.12 µM (inactive); in the assay with TK-10 it was 3.3 µM (inactive).
For the molecule `Cn1c2ccccc2c2[nH]cc3nc4ccccc4c-3c21`, the GI50 in the assay on 786-0 is > 100 µM (inactive); in the assay with COLO 205, 16.9 µM (inactive); in the assay with DMS-114, 22.9 µM (inactive); with HCT-116, 12.6 µM (inactive); in the assay with HL-60, 20.6 µM (inactive); with HOP-62, > 100 µM (inactive). The GI50 was 15.8 µM (inactive) with HT-29; 26.7 µM (inactive) in the assay on K562; 17.9 µM (inactive) with M14; > 100 µM (inactive) with Malme-3M; 13.5 µM (inactive) in the assay on NCI-H522; 16.1 µM (inactive) with RXF 393. Further, the GI50 in the assay with SF-295 was 22.1 µM (inactive); with SK-MEL-28, 14.8 µM (inactive); with SK-MEL-2, > 100 µM (inactive); in the assay on SN12C, 23.5 µM (inactive); in the assay with TK-10, 22.3 µM (inactive).
As for `O=P1(NCCCl)OCCCN1CCCl` (stereo not drawn) [IFOSFAMIDE], the GI50 in the assay with 786-0 was > 428 µM (inactive); in the assay with BT-549, > 500 µM (inactive); in the assay with COLO 205 it was 394 µM (inactive); in the assay with DMS-114, 399 µM (inactive); in the assay on DU-145 it was > 500 µM (inactive); with HCT-116, 401 µM (inactive). In addition, the GI50 was 320 µM (inactive) in the assay on HL-60; 341 µM (inactive) in the assay on HOP-62; 406 µM (inactive) in the assay on HT-29; 373 µM (inactive) in the assay on K562; > 467 µM (inactive) in the assay with M14; > 500 µM (inactive) with MDA-MB-435. Further, the GI50 with Malme-3M was 330 µM (inactive); in the assay on NCI-H522, 300 µM (inactive); with RXF 393 it was 376 µM (inactive); in the assay with SF-295 it was 374 µM (inactive); in the assay with SK-MEL-28, 385 µM (inactive); in the assay with SK-MEL-2, 382 µM (inactive). The GI50 in the assay on SN12C was 388 µM (inactive); in the assay on TK-10, > 471 µM (inactive).

For the origin of these results see ChEMBL document CHEMBL1201862, “PubChem BioAssay data set” (2004).
